Test results from ChEMBL document CHEMBL1201862, “PubChem BioAssay data set” (2004).
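Growth conditions: 96-well plates. Treatment: test compound, 48 hours, 5 concentrations. Analysis: linear interpolation between bracketing concentrations; unreached endpoints set to highest concentration. The concentration for 50% growth inhibition is given as GI50.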 Activity calls are given as the source filed them. Cut-off read from the data, not from the text of the source: active = GI50 up to about 1.1 µM and inactive = higher.

Assays:
Test in all cases: NCI tumour cell line growth inhibition, 48 h
[1] = tested on: A498
[2] = tested on: BT-549
[3] = tested on: CCRF-CEM
[4] = tested on: EKVX
[5] = tested on: HL-60
[6] = tested on: HOP-62
[7] = tested on: HOP-92
[8] = tested on: HT-29
[9] = tested on: Hs-578T
[10] = tested on: LOX IMVI
[11] = tested on: MDA-N
[12] = tested on: Malme-3M
[13] = tested on: OVCAR-4
[14] = tested on: OVCAR-8
[15] = tested on: SK-MEL-2
[16] = tested on: SK-OV-3
[17] = tested on: T47D
[18] = tested on: TK-10
[19] = tested on: U-251
[20] = tested on: UO-31

SMILES | GI50 [1] | GI50 [2] | GI50 [3] | GI50 [4] | GI50 [5] | GI50 [6] | GI50 [7] | GI50 [8] | GI50 [9] | GI50 [10] | GI50 [11] | GI50 [12] | GI50 [13] | GI50 [14] | GI50 [15] | GI50 [16] | GI50 [17] | GI50 [18] | GI50 [19] | GI50 [20]
COc1ccnc2c1C(=O)c1nc3ccccc3c3ccnc-2c13 | 0.0859 µM (active) | 0.397 µM (active) | 0.295 µM (active) | 0.284 µM (active) | 0.06 µM (active) | 0.125 µM (active) | 0.342 µM (active) | 0.0571 µM (active) | 1.55 µM (inactive) | 0.155 µM (active) | 0.25 µM (active) | 0.262 µM (active) | 0.307 µM (active) | 0.0512 µM (active) | 0.789 µM (active) | 0.167 µM (active) | 0.291 µM (active) | 0.324 µM (active) | 0.204 µM (active) | 0.161 µM (active)
O=[N+]([O-])c1cc(Cl)ccc1Sc1ccccc1 | > 100 µM (inactive) | 81.5 µM (inactive) | 89.9 µM (inactive) | > 100 µM (inactive) | 61.7 µM (inactive) | > 100 µM (inactive) | 42.2 µM (inactive) | 46.8 µM (inactive) | > 100 µM (inactive) | > 100 µM (inactive) | 98.4 µM (inactive) | > 100 µM (inactive) | > 100 µM (inactive) | > 100 µM (inactive) | 44.8 µM (inactive) | > 100 µM (inactive) | 69.5 µM (inactive) | > 100 µM (inactive) | 5.89 µM (inactive) | 23.6 µM (inactive)
COc1cc([C@H]2Oc3c(OC)cc(CCCO)cc3[C@@H]2CO)ccc1O [DIHYDRODEHYDRODICONIFERY ALCOHOL] | 50.6 µM (inactive) | 94.4 µM (inactive) | > 100 µM (inactive) | > 100 µM (inactive) | > 100 µM (inactive) | > 100 µM (inactive) | 89.5 µM (inactive) | > 100 µM (inactive) | 47.2 µM (inactive) | > 100 µM (inactive) | > 100 µM (inactive) | > 100 µM (inactive) | 76.4 µM (inactive) | > 100 µM (inactive) | > 100 µM (inactive) | > 100 µM (inactive) | 30.3 µM (inactive) | > 100 µM (inactive) | > 100 µM (inactive) | 57.8 µM (inactive)
C=C(CC)C(=O)c1ccc(OCC(=O)O)c(Cl)c1Cl [ETHACRYNIC ACID] | 35.8 µM (inactive) | 4.99 µM (inactive) | 35.8 µM (inactive) | 17.5 µM (inactive) | 28.3 µM (inactive) | 20.5 µM (inactive) | 12.2 µM (inactive) | 17.9 µM (inactive) | 20.5 µM (inactive) | 14.7 µM (inactive) | 23.1 µM (inactive) | 16.9 µM (inactive) | 20 µM (inactive) | 17.5 µM (inactive) | 17.1 µM (inactive) | 48.1 µM (inactive) | 9.35 µM (inactive) | 16.1 µM (inactive) | 16 µM (inactive) | 19.5 µM (inactive)
CCc1nc(N)nc(N)c1-c1ccc(Cl)cc1 [PYRIMETHAMINE] | 13.3 µM (inactive) | 25.8 µM (inactive) | 3.33 µM (inactive) | 7.55 µM (inactive) | 2.38 µM (inactive) | 13.4 µM (inactive) | 21.3 µM (inactive) | 4.25 µM (inactive) | > 58.2 µM (inactive) | 6.19 µM (inactive) | 4.83 µM (inactive) | 18.2 µM (inactive) | 41.6 µM (inactive) | 5.79 µM (inactive) | 38.4 µM (inactive) | 74.3 µM (inactive) | 32.7 µM (inactive) | 21.7 µM (inactive) | 9.75 µM (inactive) | 16.4 µM (inactive)
